The subject of experiment [1] is ergosterol biosynthetic pathway in strain caerg1Δ/PMET3-CaERG1. As to the kind of experiment: Incorporation of labeled acetate into sterols (TLC, scintillation counting), control strain. The experiment is classed as cell-based, Candida albicans. The settings on record: FIG. 22A, lanes 1 and 2; 90 minute induction period. As to the method: (§1) Overnight cultures were diluted into fresh SD+histidine (His) broth and grown at 30° C. until logarithmic growth was established. Cultures were harvested by centrifugation. Cells were then separated into tubes at a final density of 0.25 OD600 containing either fresh SD+His broth or SD+His broth containing 5 mM methionine (Met) and 2.5 mM cysteine (Cys). At the end of either a 0.75, 1.5, 3 or 4.5 hour incubation period, the OD600 values of each tube were measured and cultures were adjusted to a density of 0.25 OD600 units per ml (2 mls per tube). Cultures were then pulsed with 2 μCi/tube of [^3H]-acetic acid for 60 minutes.
(§2) At the end of the labeling period, cells were pelleted and rinsed 1× with medium. The washed pellet was resuspended with 1 ml of 0.1 N HCl, transferred to glass screw-capped tubes, and incubated for 5 minutes at 85° C. […]
(§3) Dried samples were disolved in petroleum ether and spotted onto a 20 cm×20 cm silica gel 60 TLC plate. […] The location of radiolabeled spots on the TLC plate was determined by matching the exposed spots on the autoradiogram.
(§4) In order to quantitate the radioactivity associated with the ergosterol pathway products, the silica gel corresponding to the exposed spots was excised from the plate and mixed with 0.5 ml of water, then mixed with 5 mls of scintillation cocktail prior to scintillation counting. […]

The subject of experiment [2] is MET3 promoter-CaERG1 cells. Description: Drug hypersensitivity whole cell assay, 384-well plate: MET3 promoter-CaERG1 cells with and without methionine. The experiment is classed as cell-based, Candida albicans. Particulars: 0.05 mM methionine, 18 hours at 35° C, OD 595 nm, FIG. 10. As to the method: In order to determine if essential polynucleotide products could be reduced in fungal cells resulting in drug hypersensitivity, a high throughput whole cell assay was designed. The known C. albicans essential polynucleotide corresponding ERG1 polynucleotide in S. cervisiae was tested. CaERG 1 codes for squaline epoxidase and is known to be inhibited by terbinafine. The first polynucleotide copy was disrupted as described above and the second polynucleotide copy was modified by promoter swapping with MET3 promoter, also as described above.
The optimal cell density needed to control cell growth in a 384-well plate within the log phase after 18 hours incubation at 35° C. was first determined. […] At different time intervals, the plate was withdrawn from the incubator and the cell growth was determined by reading absorbance at 590 nm on a Perkin Elmer 7000 machine.
In order to assess whether cells containing the ERG1−MET promoter construct would display hypersensitivity to terbinafine upon the addition of methionine in comparison to cells for which no methionine was added, cells were grown in the 384 well-plate as described above. […] After 18 hours of incubation, the OD readings were taken of the plates to measure cell growth (595 nm). […]

Experiment [3] has as its system MET3P-ERG1 construct. As to the kind of experiment: Sensitivity of the MET3P-ERG1 construct to antifungal drugs (MICs, 96-well format plate). In kind it is cell-based, Candida albicans. The settings on record: for MIC: Candida albicans, at 20 hrs, MET3P-ERG1 construct; for sensitivity to the drug altered by the presence of methionine: drugs not known to be inhibitors of the CaERG1 product. On the procedure:
In order to assess whether cells containing the ERG1−MET promoter construct would display hypersensitivity to terbinafine upon the addition of methionine in comparison to cells for which no methionine was added, cells were grown in the 384 well-plate as described above. A final concentration of 0.05 mM methinone was added to wells within one plate of cells and a control plate, in which SD+His broth was added in lieu of methionine was added to a second plate. 8 μl of various concentrations of terbinafine in 10.26% DMSO was added to both the control and test plates. The concentrations of terbinafine added to different wells ranged from 163 μg/ml to 0.02 μg/ml. […] After the addition of this inhibitor, both the control and experimental plates were incubated at 35° C. After 18 hours of incubation, the OD readings were taken of the plates to measure cell growth (595 nm). […] Increased sensitivity of cells containing the ERG1−MET3 was confirmed in a separate experiment using a 96-well format plate.
Furthermore, results of additional experiments conducted with the drugs sordarin and fluconazole which are not known to be inhibitors of the CaERG1 polynucleotide product confirm that sensitivity to these drugs is not altered by the presence of methionine.

Experiment [4] deals with ergosterol biosynthetic pathway in strain fcg5Δ/PMET3-FCG5. As to the kind of experiment: Incorporation of labeled acetate into sterols (TLC, scintillation counting), test strain. In kind it is cell-based, Candida albicans. Particulars: FIG. 22B; majority of the counts trapped in squalene. On the procedure: as §1, §2, §3, §4
Experiment [5] concerns MET3P-ERG1 construct. The settings on record: 0.5 mM methionine; growth monitored between 16 and 24 hours, OD 595 nm; FIG. 9.
Protocol: Cells were diluted from these cultures to 757,002 cfu/ml in SD+His medium. 35 μl of the diluted cells were dispensed into wells of a 384-well plate containing 8 μl of 10.26% DMSO. […] Cell growth was monitored between 16 and 24 hours by reading the optical density at 595 nm.

The results in this text go back to patent US7442532B2, “Essential fungal CaYLR100w polypeptides, and methods of use” (Bristol-Myers Squibb Company, priority 2003, dated 2008).

Values after ≈ are worked out from the molar mass of the structure shown.

Broadly, the MIC is the smallest concentration in the dilution series that meets the test's criterion for growth inhibition.

As to `CN(C/C=C/C#CC(C)(C)C)Cc1cccc2ccccc12` [Terbinafine], the “effect on ergosterol biosynthesis (TLC autoradiogram)” value in experiment [1] is on record as “a block in ergosterol biosynthesis at squalene”. Also, in experiment [2], the “increase in sensitivity in the presence of methionine comparing to the no methionine control” value is recorded as 4-8 fold. The “increase in sensitivity when promoter activity was down regulated by the presence of methionine” value in experiment [3] (96-well format plate, Table 7) is on record as 16-32 fold. In addition, in experiment [3] (presence of methionine), the minimum inhibitory concentration (MIC) is 0.5 µg/mL. For the same molecule, the “effect on incorporation of radiolabelled acetate into ergosterol (TLC autoradiogram)” value in experiment [4] was “blocked the incorporation of radiolabelled acetate into ergosterol”.

For `CSCC[C@H](N)C(=O)O` [methionine], in experiment [5], the “reduction of cell growth” value is on record as “approximately 50%”.

As to `OC(Cn1cncn1)(Cn1cncn1)c1ccc(F)cc1F` [Fluconazole], the minimum inhibitory concentration (MIC) came to 1 µg/mL (≈ 3.27 µM) in experiment [3] (absence of methionine) and 1 µg/mL in experiment [3] (presence of methionine). Further, the “sensitivity to the drug altered by the presence of methionine” value in experiment [3] is “not altered”.

On to `CO[C@H]1[C@@H](O)[C@H](O)[C@H](OC[C@@]23C[C@@H]4[C@H](C)CC[C@H]4[C@@]4(C=O)CC2C=C(C(C)C)[C@@]34C(=O)O)O[C@@H]1C` [Sordarin], for which the MIC in experiment [3] (absence of methionine) worked out at 0.5 µg/mL (≈ 1.02 µM); in experiment [3] (presence of methionine) it was 0.5 µg/mL. In addition, in experiment [3], the “sensitivity to the drug altered by the presence of methionine” value was “not altered”.
